We go through two molecules from PubChem BioAssay AID1963428 (Molecular Pharmacology Branch, DTP, NCI, 2024).

Where “and” joins values, the source holds several entries; their conditions need not be identical. Equal values may be shown once.

This experiment relates to 171881-019-R-J1-PDC complex spheroid growth, % test/control. The experiment is described as follows: Anticancer human tumor 171881-019-R-J1-PDC patient-derived invasive breast carcinoma cell line growth inhibition [Asc]. Particulars: for viability, T/C: stronger effect = lower value. In short, it runs like this:
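Tumor cells were grown as multicellular spheroids with stromal HUVEC and mesenchymal stem cells and treated singly or in combination. Concentrations fell in half-log steps from the clinical Cmax, or from 10 microM where none was known.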
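Wherever viability, T/C is given: spheroids exposed to compounds for 7 days.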

Regarding `O=C(c1cc(Cc2n[nH]c(=O)c3ccccc23)ccc1F)N1CCN(C(=O)C2CC2)CC1`, the viability, T/C (in general, the result in the treated group divided by that in the control group, in per cent) by setting is: (compound 0.0316 µM) 88.5% and 96.6% and 106%; (compound 0.1 µM) 90.8% and 103% and 111%; (compound 0.316 µM) 93.1% and 101% and 107%; (compound 1 µM) 95.5% and 86% and 102%; (compound 3.16 µM) 87.9% and 87.8% and 107%; (compound 10 µM) 92.6% and 79.8% and 122%. For the same molecule, the IC50 (commonly the concentration needed to halve the response being measured) (curve of compound) was above 10000 nM.
Turning to `CCN1CCN(Cc2ccc(Nc3ncc(F)c(-c4cc(F)c5nc(C)n(C(C)C)c5c4)n3)nc2)CC1` + CCN1C(C(=O)NC23CCC(C(=O)O)(CC2)CC3)C(c2cccc(Cl)c2F)C2(C(=O)Nc3cc(Cl)ccc32)C12CCCCC2, the IC50 by setting is: (curve of first compound, second compound 0.03 µM) above 1000 nM; (curve of first compound, second compound 0.0949 µM) above 1000 nM; (curve of first compound, second compound 0.3 µM) above 1000 nM; (curve of first compound, second compound 0.949 µM) above 1000 nM; (curve of first compound, second compound 3 µM) above 1000 nM. For the same molecule, the viability, T/C runs as follows: (second compound 0.03 µM, first compound 0.00316 µM) 97.8%; (second compound 0.03 µM, first compound 0.01 µM) 86.6%; (second compound 0.03 µM, first compound 0.0316 µM) 108%; (second compound 0.03 µM, first compound 0.1 µM) 128%; (second compound 0.03 µM, first compound 0.316 µM) 133%; (second compound 0.03 µM, first compound 1 µM) 133%. The viability, T/C by setting is: (second compound 0.0949 µM, first compound 0.00316 µM) 104%; (second compound 0.0949 µM, first compound 0.01 µM) 96.2%; (second compound 0.0949 µM, first compound 0.0316 µM) 115%; (second compound 0.0949 µM, first compound 0.1 µM) 117%; (second compound 0.0949 µM, first compound 0.316 µM) 144%; (second compound 0.0949 µM, first compound 1 µM) 144%. For the same molecule, the viability, T/C is 109% (second compound 0.3 µM, first compound 0.00316 µM); 115% (second compound 0.3 µM, first compound 0.01 µM); 109% (second compound 0.3 µM, first compound 0.0316 µM); 111% (second compound 0.3 µM, first compound 0.1 µM); 129% (second compound 0.3 µM, first compound 0.316 µM); 126% (second compound 0.3 µM, first compound 1 µM). Also, the viability, T/C was 114% (second compound 0.949 µM, first compound 0.00316 µM); 119% (second compound 0.949 µM, first compound 0.01 µM); 112% (second compound 0.949 µM, first compound 0.0316 µM); 118% (second compound 0.949 µM, first compound 0.1 µM); 129% (second compound 0.949 µM, first compound 0.316 µM); 143% (second compound 0.949 µM, first compound 1 µM). The viability, T/C was 101% (second compound 3 µM, first compound 0.00316 µM); 107% (second compound 3 µM, first compound 0.01 µM); 115% (second compound 3 µM, first compound 0.0316 µM); 130% (second compound 3 µM, first compound 0.1 µM); 146% (second compound 3 µM, first compound 0.316 µM); 144% (second compound 3 µM, first compound 1 µM).
